The source of these data is patent publication EP4755891A1, “ARF1 INHIBITOR AND USE THEREOF” (AOBIO PHARMACEUTICAL CO., LTD., priority 2023, dated 2025).

The subject of data set [1] is Mouse neuroblastoma N2A. The data set is described as follows: Test for Golgi morphology abnormalities (GM130 immunofluorescence). The format is cell-based. Conditions: N2A cells; FIG. 4. The procedure: GCA, a known Arf1 inhibitor, was used as a positive control.
Mouse neuroblastoma N2A (N2a, ATCC®CCL-131™) was cultured, treated, and subjected to immunofluorescence staining as previously reported (Wang et al., 2021).

Data set [2] is described as follows: Solubility in DMSO and H2O.
For data set [3], the system named is B16-F10 melanoma. Nature of the data set: Inhibition of B16-F10 melanoma in C57B/6 mice. Particulars: 5 mg/kg, oral, two consecutive weeks. The format is in vivo. The procedure:
In this example, the inhibitory effect of Compound 9 synthesized in the above preparation example on melanoma tumor growth was tested.
Murine B16-F10 cells were inoculated at a dose of 5×10^5 cells per mouse into the left abdomen of 6-week-old male mice. Approximately 7 days later, the mice were treated orally with ddH2O or the novel Arf1 inhibitor for two consecutive weeks. The mice were randomly divided into three groups: the control group, the Compound 9 treatment group, and the DU102 treatment group. The mice were administered ddH2O, 5 mg/kg of Compound 9 (dissolved in ddH2O), or 5 mg/kg of DU102 (dissolved in a solvent composed of 5% DMSO + 95% corn oil, as a positive control) for two consecutive weeks. Tumor diameters were measured every 2-3 days using a digital caliper (ULINE, Cat^# H-7352), and the tumor volume was calculated using the formula ½ × longitudinal diameter (length) × maximum transverse diameter (width). When the maximum tumor volume reached 2000 mm^3, the mice were euthanized.

The target in data set [4] is T1, Arf1 (Homo sapiens, UniProt P84077).
T1 construct: endogenous in cells; host or cells: Huh-7 liver cancer cells (lysate)
T1 sequence (P84077 whole entry): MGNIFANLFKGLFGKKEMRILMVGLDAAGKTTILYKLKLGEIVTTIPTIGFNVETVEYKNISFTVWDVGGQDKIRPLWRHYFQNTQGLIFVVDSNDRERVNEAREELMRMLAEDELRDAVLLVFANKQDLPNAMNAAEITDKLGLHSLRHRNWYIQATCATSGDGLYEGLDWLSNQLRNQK
Nature of the data set: Inhibition test of Arf1 activation (Active Arf1 pull-down and detection kit, Western blot). In kind it is cell-based. Conditions: lysate of liver cancer Huh-7 cells; GTP-bound Arf1; FIG. 3. The procedure: In this example, the inhibitory ability of Compounds 3 and 9 synthesized in the above preparation examples on Arf1 activation was tested. The Pierce Active Arf1 Pull-Down and Detection Kit (Thermo Scientific, Cat#16121) was used with the lysate of liver cancer Huh-7 cells to detect the activated Arf1. It is a complete kit that selectively enriches and detects GTP-bound Arf1 GTPase through specific protein interactions with the GGA3 protein-binding domain.

Data set [5] in a line: Plasma stability, rat plasma. The format is in vitro ADME. Conditions: 37°C; for remaining amount in plasma: rat plasma, 2.0 µM. The procedure:
(§1) At 37°C, 2.0 µM of the compound was co-incubated with plasma samples from five species (mouse, rat, dog, cynomolgus monkey, human) for 120 minutes. The concentration of the compound in the samples was detected by the liquid chromatography-tandem mass spectrometry (LC-MS/MS) method, and the half-life (T1/2) was calculated.

Data set [6] can be described thus: Plasma stability, dog plasma. The format is in vitro ADME. Particulars: 2.0 µM, 37°C. The procedure: as §1

“Also recorded” adds a separate entry of the source. Where only a bound is given, the exact number is not on record here.

Usually half-life stands for how long it takes for the measured level to halve. On to `Cc1csc2ncnc(Nc3ccc4c(c3)ncn4C)c12` [Compound 9, 5-Methyl-N-(1-methyl-1H-benzo[d]imidazol-5-yl)thieno[2,3-d]pyrimidin-4-amine], for which, in data set [1], the “Golgi morphology (Golgi apparatus defects, distribution of Golgi marker GM130)” value is “induce Golgi apparatus defects; also recorded: effectively induce morphological changes in the Golgi apparatus”. The “solubility in DMSO” value in data set [2] (DMSO, FIG. 2A) is “soluble”. Further, the “solubility in H2O” value in data set [2] (H2O, FIG. 2B) was “high solubility”. The B16-F10 melanoma growth result in data set [3] (FIG. 8) is “effectively inhibit B16-F10 melanoma growth”. Also, the “size of murine melanoma tumors” value in data set [3] (FIG. 8A) was “significantly inhibited the size of murine melanoma tumors”. For the same molecule, the “weight of murine melanoma tumors” value in data set [3] (FIG. 8B) is recorded as “significantly reduced the weight of murine melanoma tumors”. For the same molecule, in data set [4], the “inhibition of Arf1 activation” value was “effectively inhibit the activation of Arf1; also recorded: effective inhibitors”. The same molecule came in with a half-life at 2 µM in data set [5] (plasma, printed in the Rat row) above 4.82 h. In addition, the “remaining amount in plasma” value is on record as 100.0% in data set [5] (time point 0 min); 102.1% in data set [5] (time point 10 min); 93.5% in data set [5] (time point 30 min); 99.3% in data set [5] (time point 60 min); 93.2% in data set [5] (time point 120 min); 100.0% in data set [6] (time point 0 min). Further, the “remaining amount in plasma” value is on record as 99.0% in data set [6] (time point 10 min), 94.0% in data set [6] (time point 30 min), 98.8% in data set [6] (time point 60 min) and 86.0% in data set [6] (time point 120 min).
